{"source": "patent US20210069295A1", "about": "“GALECTINS CONTROL MTOR IN RESPONSE TO ENDOMEMBRANE DAMAGE AND PROVIDE A MECHANISM AND TARGET FOR THE TREATMENT OF AUTOPHAGY-RELATED DISEASES” (STC. UNM, priority 2017, published 2021)", "key": {"mTOR": {"tested_on": "mTOR", "test": "mTOR activity by immunoblotting in HeLa cells (wildtype and TSC2-deleted)", "type": "cell-based", "details": "100 μM GPN 1 h", "protocol": "(A) Analysis of mTOR activity in TSC2-deleted (TSC2−/−) and wildtype (TSC2WT) HeLa cells treated with 100 μM GPN in full medium (Full) or starved in EBSS for 1 h. mTOR activity was monitored by immunoblotting analysis of S6K1 (T389) phosphorylation (phosphorylated S6K (p-T389) relative to total S6K). Ctrl, control (untreated cells). (B) Co-immunoprecipitation analysis of changes in interactions between Ragulator and Rag GTPases following treatment with GPN. HEK293T cells stably expressing FLAG-metap2 (control) or FLAG-p14 were treated with 100 μM GPN in full medium for 1 h. Cell lysates were immunoprecipitated (IP) with anti-FLAG antibody and immunoblotted for endogenous RagA or RagC. […] (D) Analysis of mTOR activity in HEK293T cells or HEK293T cells stably expressing constitutively active RagB GTPase (RagBQ99L) treated with 100 μM GPN in full medium or starved in EBSS for 1 h. mTOR activity was monitored as in A. Data, means±SEM, (n=3), † not significant, **p<0.01, ANOVA. […] (F) Quantification by HC of overlaps between mTOR and LAMP2 (representative images shown in FIG. S2C) in HEK293T cells and HEK293T cells stably expressing constitutively active RagB GTPase (RagBQ99L) treated with 100 μM GPN in full medium for 1 h. Data, means±SEM, n≥3 independent experiments (500 primary objects counted per well; ≥5 wells/sample per each experiment); † p≥0.05, *p<0.05, ANOVA. […]"}, "AMPK": {"tested_on": "AMPK", "test": "AMPK activation by immunoblotting of phosphorylated AMPKα, ACC and ULK1 in HEK293A cells", "type": "cell-based"}}, "note": "Peptide text beside a SMILES is read from it."}
{"smiles": "NCC(=O)N[C@@H](Cc1ccccc1)C(=O)Nc1ccc2ccccc2c1", "note": "[GPN, glycyl-L-phenylalanine 2-naphththylamide] (HELM PEPTIDE1{G.F.[c1ccc2cc(N[*:1])ccc2c1]}$$$$V2.0)", "values": [{"measurement": "mTOR activity in different cell lines", "setting": "mTOR; HeLa cells, comparable to starvation", "value": "inhibited mTOR activity"}, {"measurement": "mTOR activity in cells null for TSC2", "setting": "mTOR; TSC2-deleted HeLa cells", "value": "inhibited mTOR"}, {"measurement": "ULK1 pS317 (activating AMPK phosphosite)", "setting": "AMPK; 100 μM GPN", "value": "increase"}, {"measurement": "ULK1 pS757 (mTOR-dependent inactivating phosphosite)", "setting": "AMPK; 100 μM GPN", "value": "decreased"}, {"measurement": "phosphorylation of S79 of acetyl-CoA carboxylase (ACC)", "setting": "AMPK; 100 μM GPN", "value": "elevated phosphorylation"}, {"measurement": "AMPK activation (AMPKα T172 phosphorylation)", "setting": "AMPK; HEK293A, 100 μM GPN in full medium", "value": "activated"}]}
